Broadly, the IC50 is the concentration that inhibits the measured activity by half. A high value points to a need for much substance.

The values below come from patent publication US6784184B2, “5-(arylsulfonyl)-,5-(arylsulfinyl), and 5-(arylsulfanyl)-thiazolidine-2,4-diones useful for inhibition of farnesyl-protein transferase” (Wyeth Holdings Corporation, priority 2001, dated 2004).

For data set [1], the system named is K-ras dependent human colon carcinoma (LoVo). As to the kind of experiment: In vivo effects against K-ras dependent human colon carcinoma (LoVo). Conditions: Day +35 post tumor cell implantation; 1 mg/kg IP on days 5, 9 and 13; rats. As for the experimental part: Compounds of this invention were tested for in vivo effects in rats against various tumors. For the compound of Example 114, when tested against a K-ras dependent human colon carcinoma (LoVo), the following results were obtained (Table II): […]

Data set [2] concerns the target FPTase (H-Ras substrate) (UniProt P29702+P49355). As to the kind of experiment: in vitro FTase Inhibition Assay, H-Ras as substrate for farnesylation. Type of data set: biochemical. Conditions: H-Ras used as substrate for farnesylation. The gist of the method:
(§1)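 His6-Ras substrate ([…]) with 10 ng FPTase in 50 mM Tris pH 7.5, ZnCl2, MgCl2, KCl, DTT, 0.2% octyl-β-glucoside, 1% DMSO; incubated 30-90 min. TCA/SDS-precipitated Ras filtered, 3H-FPP incorporation counted; % inhibition from background-corrected cpm versus no-compound control.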

The target in data set [3] is FPTase (K-Ras substrate) (UniProt P29702+P49355). As to the kind of experiment: in vitro FTase Inhibition Assay, K-Ras as substrate for farnesylation. The format is biochemical. Conditions: K-Ras used as substrate for farnesylation. In short, it runs like this:
as §1

Regarding `CC[C@]1(O)C[C@H]2CN(CCc3c([nH]c4ccccc34)[C@@](C(=O)OC)(c3cc4c(cc3OC)N(C=O)[C@H]3[C@@](O)(C(=O)OC)[C@H](OC(C)=O)[C@]5(CC)C=CCN6CC[C@]43[C@@H]65)C2)C1` [Vincristine, reference compound], the “S/T = No. Survivors/No.Treated” value in data set [1] is 9/10. On to `O=C1NC(=O)C(CCCC#Cc2ccc(Cl)cc2)(S(=O)(=O)c2ccc3ccccc3c2)S1` (centres unmarked) [Example 107, 5-[5-(4-Chlorophenyl)pent-4-ynyl]-5-(naphthalene-2-sulfonyl)-thiazolidine-2,4-dione], for which the IC50 is 0.18 to 0.2 µM in data set [2] and 0.62 to 0.7 µM in data set [3].

As to `COc1ccc(S(=O)(=O)C2(CCCC#Cc3cc(NC(=O)OC(C)C)ccc3C)SC(=O)NC2=O)cc1` (centres unmarked) [Example 179, (3-{5-[5-(4-Methoxybenzenesulfonyl)-2,4-dioxothiazolidin-5-yl]pent-1-ynyl}-4-methylphenyl)carbamic Acid Isopropyl Ester], the IC50 in data set [2] was in the range of 0.002 to 0.032 µM; in data set [3], 0.005 to 0.07 µM. For `COc1ccc(S(=O)(=O)C2(CCCC#Cc3cc(Cl)ccc3C)SC(=O)NC2=O)cc1` (centres unmarked) [Example 138, 5-[5-(5-Chloro-2-methylphenyl)pent-4-ynyl]-5-(4-methoxybenzene-sulfonyl)thiazolidine-2,4-dione] the same measures were 0.023 to 0.032 µM and 0.3 to 0.42 µM. The matching figures for `Cc1cc([N+](=O)[O-])ccc1C#CCCCC1(S(=O)(=O)c2ccc(Oc3ccccc3)cc2)SC(=O)NC1=O` (centres unmarked) [Example 129, 5-[5-(2-Methyl-4-nitrophenyl)pent-4-ynyl]-5-(4-phenoxybenzenesulfonyl)-thiazolidine-2,4-dione]: 0.1 µM and 0.6 to 0.79 µM. With `COc1ccc(S(=O)(=O)C2(CCCC#Cc3cc(NC(=O)OCc4ccc([N+](=O)[O-])cc4)ccc3C)SC(=O)N(C(=O)OCc3ccc([N+](=O)[O-])cc3)C2=O)cc1` (centres unmarked) [Example 227, 4-Nitrobenzyl 5-[(4-methoxyphenyl)sulfonyl]-5-{5-[2-methyl-5-({[(4-nitrobenzyl)oxy]carbonyl}amino)phenyl]pent-4-ynyl}-2,4-dioxo-1,3-thiazolidine-3-carboxylate], the figures for the half-maximal inhibitory concentration (IC50) in data set [2] and in data set [3] were 0.007 to 0.01 µM and 0.21 to 0.4 µM, respectively. For `Cc1ccc([N+](=O)[O-])cc1C#CCCCC1(S(=O)(=O)c2cccc3ccccc23)SC(=O)NC1=O` (centres unmarked) [Example 126, 5-[5-(2-Methyl-5-nitrophenyl)-pent-4-ynyl]-5-(naphthalene-1-sulfonyl)-thiazolidine-2,4-dione], the values for the IC50 in data set [2] and in data set [3] were 0.09 µM and 1.7 µM, respectively. The matching figures for `COC(=O)c1ccc(C)c(C#CCCCC2(S(=O)(=O)c3ccc(OC)cc3)SC(=O)NC2=O)c1` (centres unmarked) [Example 155, 3-{5-[5-(4-Methoxybenzenesulfonyl)-2,4-dioxo-thiazolidin-5-yl]-pent-1-ynyl}-4-methylbenzoic Acid Methyl Ester]: 0.01 to 0.32 µM and 0.42 to 0.44 µM. Take `O=C1NC(=O)C(CCCC#Cc2ccc(Cl)cc2)(S(=O)(=O)c2ccc(F)cc2)S1` (centres unmarked) [Example 105, 5-[5-(4-Chlorophenyl)pent-4-ynyl]-5-(4-fluorobenzenesulfonyl)-thiazolidine-2,4-dione]: the figures for the half-inhibitory concentration (IC50) in data set [2] and in data set [3] were 0.05 to 0.15 µM and 1.5 to 1.7 µM, respectively.

For the compound `O=C1NC(=O)C(CCCC#Cc2cc(Cl)ccc2Cl)(S(=O)(=O)c2ccc(Oc3ccncc3)cc2)S1` (centres unmarked) [Example 116, 5-[5-(2,5-Dichlorophenyl)pent-4-ynyl]-5-[4-(pyridin-4-yloxy)benz-enesulfonyl]-thiazolidine-2,4-dione], the IC50 lay in the range of 0.005 to 0.01 µM in data set [2] and 0.017 to 0.04 µM in data set [3]. For `Cc1ccc(S(=O)(=O)C2(CCCC#Cc3ccc(C(C)(C)C)cc3)SC(=O)NC2=O)cc1` (centres unmarked) [Example 157, 5-[5-(4-tert-Butylphenyl)pent-4-ynyl]-5-(toluene-4-sulfonyl)-thiazolidine-2,4-dione] the same measures were 0.27 µM and 5 µM. In the case of `COc1ccc(S(=O)(=O)C2(CCCC#Cc3cc(F)cc([N+](=O)[O-])c3)SC(=O)NC2=O)cc1` (centres unmarked) [Example 133, 5-[5-(3-Fluoro-5-nitrophenyl)pent-4-ynyl]-5-(4-methoxybenzene-sulfonyl)-thiazolidine-2,4-dione], the values for the 50% inhibitory concentration (IC50) in data set [2] and in data set [3] were 0.04 to 0.2 µM and 0.054 to 1 µM, respectively. As to `COc1ccc(S(=O)(=O)C2(CCCC#Cc3cc([N+](=O)[O-])ccc3OC)SC(=O)NC2=O)cc1` (centres unmarked) [Example 123, 5-(4-Methoxybenzenesulfonyl)-5-[5-(2-methoxy-5-nitrophenyl)pent-4-ynyl]-thiazolidine-2,4-dione], the half-inhibitory concentration (IC50) in data set [2] lay in the range of 0.08 to 0.082 µM; in data set [3] it was 1 to 2.8 µM.

Take “5-[5-(2-Methyl-4-nitrophenyl)pent-4-ynyl]-5-[4-(pyridin-4-yloxy)-benzenesulfonyl]-thiazolidine-2,4-dione [Example 128]”: the values for the IC50 in data set [2] and in data set [3] were 0.001 to 0.032 µM and 0.02 to 0.22 µM, respectively. The matching figures for `COc1ccc(S(=O)(=O)C2(CCCC#Cc3cc(NC(=O)Oc4ccc(Cl)cc4)ccc3C)SC(=O)NC2=O)cc1` (centres unmarked) [Example 177, (3-{5-[5-(4-Methoxybenzenesulfonyl)-2,4-dioxothiazolidin-5-yl]pent-1-ynyl}-4-methylphenyl)carbamic Acid 4-Chloro-phenyl Ester]: 0.011 to 0.032 µM and 0.086 to 0.1 µM.

`Cc1ccc(NC(=O)OC(C)(C)C)cc1C#CCCCC1(S(=O)(=O)c2ccc(I)cc2)SC(=O)NC1=O` (centres unmarked) [Example 148, (3-{5-[5-(4-Iodobenzenesulfonyl)-2,4-dioxothiazolidin-5-yl]-pent-1-ynyl}-4-methylphenyl)carbamic Acid tert-Butyl Ester]: the IC50 in data set [2] lay in the range of 0.0045 to 0.12 µM; in data set [3], 0.023 to 0.031 µM. Turning to `Cc1ccc(S(=O)(=O)C2(CCCC#Cc3ccc(S(C)(=O)=O)cc3)SC(=O)NC2=O)cc1` (centres unmarked) [Example 159, 5-[5-(4-Methanesulfonylphenyl)-pent-4-ynyl]-5-(toluene-4-sulfonyl)-thiazolidine-2,4-dione], the IC50 in data set [2] was 0.65 µM; in data set [3], > 10 µM. The matching figures for `COc1ccc(S(=O)(=O)C2(CCCC#Cc3ccc(Cl)cc3Cl)SC(=O)NC2=O)cc1` (centres unmarked) [Example 117, 5-[5-(2,4-Dichlorophenyl)pent-4-ynyl]-5-(4-methoxybenzenesulfonyl)-thiazolidine-2,4-dione]: 0.02 to 0.03 µM and 0.51 to 1 µM. The matching figures for `O=C1NC(=O)C(CCCC#Cc2ccc(Cl)cc2)(S(=O)(=O)c2ccc([N+](=O)[O-])cc2)S1` (centres unmarked) [Example 110, 5-[5-(4-Chlorophenyl)pent-4-ynyl]-5-(4-nitrobenzenesulfonyl)-thiazolidine-2,4-dione]: 0.4 µM and 7 µM. The matching figures for `COc1ccc(S(=O)(=O)C2(CCCC#Cc3ccc(NC(=O)OC(C)(C)C)cc3C(F)(F)F)SC(=O)NC2=O)cc1` (centres unmarked) [Example 151, (4-{5-[5-(4-Methoxybenzenesulfonyl)-2,4-dioxothiazolidin-5-yl]pent-1-ynyl}-3-trifluoromethylphenyl)-carbamic Acid tert-Butyl Ester]: 0.53 to 0.7 µM and 0.21 to 1 µM. On to `O=C1NC(=O)C(CCCC#Cc2ccc(Cl)cc2)(S(=O)(=O)c2cccc3cccnc23)S1` (centres unmarked) [Example 109, 5-[5-(4-Chlorophenyl)pent-4-ynyl]-5-(quinoline-8-sulfonyl)-thiazolidine-2,4-dione], for which the IC50 was 0.065 to 0.13 µM in data set [2] and 1.4 to 2.1 µM in data set [3]. For `Cc1ccc(C(=O)NC(C)(C)C)cc1C#CCCCC1(S(=O)(=O)c2ccc(I)cc2)SC(=O)NC1=O` (centres unmarked) [Example 147, N-tert-Butyl-3-{5-[5-(4-iodo-benzenesulfonyl)-2,4-dioxothiazol-idin-5-yl]-pent-1-ynyl}-4-methylbenzamide] the same measures were 0.0068 to 0.21 µM and 0.08 to 0.1 µM. The matching figures for `COc1ccc(S(=O)(=O)C2(CCCC#Cc3cc(NC(=O)OCC(C)(C)C)ccc3C)SC(=O)NC2=O)cc1` (centres unmarked) [Example 180, (3-{5-[5-(4-Methoxybenzenesulfonyl)-2,4-dioxothiazolidin-5-yl]pent-1-ynyl}-4-methylphenyl)carbamic Acid Neopentyl Ester]: 0.002 to 0.032 µM and 0.007 to 0.09 µM. On to `COc1ccc(S(=O)(=O)C2(CCCC#Cc3ccc(Cl)cc3C)SC(=O)NC2=O)cc1` (centres unmarked) [Example 142, 5-[5-(4-Chloro-2-methylphenyl)pent-4-ynyl]-5-(4-methoxybenzene-sulfonyl)-thiazolidine-2,4-dione], for which the half-maximal inhibitory concentration (IC50) lay within 0.017 to 0.03 µM in data set [2] and 0.04 to 1 µM in data set [3].

In the case of `CCCCOC(=O)Nc1ccc(C)c(C#CCCCC2(S(=O)(=O)c3ccc(OC)cc3)SC(=O)N(C(=O)OCCCC)C2=O)c1` (centres unmarked) [Example 231, Butyl 5-(5-{5-[(butoxycarbonyl)amino]-2-methylphenyl}pent-4-ynyl)-5-[(4-methoxy-phenyl)sulfonyl]-2,4-dioxo-1,3-thiazolidine-3-carboxylate], the half-inhibitory concentration (IC50) in data set [2] fell in the range of 0.01 to 0.021 µM; in data set [3] it was 0.1 to 1 µM. With `COc1ccc(S(=O)(=O)C2(CCCC#Cc3ccc(C(F)(F)F)cc3)SC(=O)NC2=O)cc1` (centres unmarked) [Example 153, 5-(4-Methoxybenzenesulfonyl)-5-[5-(4-trifluoromethylphenyl)pent-4-ynyl]-thiazolidine-2,4-dione], the half-inhibitory concentration (IC50) in data set [2] is 0.17 to 0.2 µM; in data set [3] it was 1 to 6.1 µM. For `COc1ccc(S(=O)(=O)C2(CCCC#Cc3ccc(C)cc3C)SC(=O)NC2=O)cc1` (centres unmarked) [Example 136, 5-[5-(2,4-Dimethylphenyl)pent-4-ynyl]-5-(4-methoxybenzenesulfonyl)-thiazolidine-2,4-dione] the same measures were 0.043 to 0.05 µM and 1 to 1.9 µM.
